Measured values as given in patent publication US20080255169A1 (priority 2004, published 2008).
pEC50: −log10 of the molar value. Read-outs that look alike come from different tables or passages of the source.

Target: α2β1 integrin (Homo sapiens, UniProt P05556+P17301)
Assay: Cell adhesion assay
Assay type: cell-based
Conditions: for Emax: read-out: Emax in cell adhesion assay
[1] = read-out: EC50 in cell adhesion assay

Chain of α2β1 integrin (P17301 30-1181): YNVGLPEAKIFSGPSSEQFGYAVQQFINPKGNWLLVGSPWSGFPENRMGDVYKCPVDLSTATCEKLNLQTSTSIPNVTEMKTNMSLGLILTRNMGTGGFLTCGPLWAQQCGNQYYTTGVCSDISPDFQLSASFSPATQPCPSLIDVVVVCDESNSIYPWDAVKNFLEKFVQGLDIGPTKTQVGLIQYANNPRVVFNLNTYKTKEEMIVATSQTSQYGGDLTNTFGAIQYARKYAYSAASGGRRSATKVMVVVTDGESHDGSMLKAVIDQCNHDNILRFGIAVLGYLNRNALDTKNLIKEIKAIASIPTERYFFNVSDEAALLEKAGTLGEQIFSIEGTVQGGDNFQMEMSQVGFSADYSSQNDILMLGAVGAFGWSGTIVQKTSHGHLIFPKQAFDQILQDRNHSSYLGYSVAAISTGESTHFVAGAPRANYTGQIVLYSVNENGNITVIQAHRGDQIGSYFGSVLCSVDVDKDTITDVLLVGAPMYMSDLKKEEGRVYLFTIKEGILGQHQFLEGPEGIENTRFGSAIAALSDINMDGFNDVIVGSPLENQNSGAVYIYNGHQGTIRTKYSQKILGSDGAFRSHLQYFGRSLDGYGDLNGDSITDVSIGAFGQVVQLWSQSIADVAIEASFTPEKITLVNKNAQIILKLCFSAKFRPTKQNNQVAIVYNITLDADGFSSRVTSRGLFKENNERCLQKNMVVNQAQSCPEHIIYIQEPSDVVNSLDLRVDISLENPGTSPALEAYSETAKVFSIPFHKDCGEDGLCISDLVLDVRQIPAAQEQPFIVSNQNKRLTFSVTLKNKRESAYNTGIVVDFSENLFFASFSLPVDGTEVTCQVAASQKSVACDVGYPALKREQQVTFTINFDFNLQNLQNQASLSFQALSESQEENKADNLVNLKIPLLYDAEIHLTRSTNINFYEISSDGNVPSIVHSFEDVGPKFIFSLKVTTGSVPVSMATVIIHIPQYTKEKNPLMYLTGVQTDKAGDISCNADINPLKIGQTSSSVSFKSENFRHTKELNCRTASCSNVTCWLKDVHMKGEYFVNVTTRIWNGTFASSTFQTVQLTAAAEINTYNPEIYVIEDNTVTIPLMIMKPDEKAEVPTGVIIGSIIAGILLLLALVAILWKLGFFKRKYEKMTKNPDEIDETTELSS
Chain of α2β1 integrin (P05556 21-798 partner): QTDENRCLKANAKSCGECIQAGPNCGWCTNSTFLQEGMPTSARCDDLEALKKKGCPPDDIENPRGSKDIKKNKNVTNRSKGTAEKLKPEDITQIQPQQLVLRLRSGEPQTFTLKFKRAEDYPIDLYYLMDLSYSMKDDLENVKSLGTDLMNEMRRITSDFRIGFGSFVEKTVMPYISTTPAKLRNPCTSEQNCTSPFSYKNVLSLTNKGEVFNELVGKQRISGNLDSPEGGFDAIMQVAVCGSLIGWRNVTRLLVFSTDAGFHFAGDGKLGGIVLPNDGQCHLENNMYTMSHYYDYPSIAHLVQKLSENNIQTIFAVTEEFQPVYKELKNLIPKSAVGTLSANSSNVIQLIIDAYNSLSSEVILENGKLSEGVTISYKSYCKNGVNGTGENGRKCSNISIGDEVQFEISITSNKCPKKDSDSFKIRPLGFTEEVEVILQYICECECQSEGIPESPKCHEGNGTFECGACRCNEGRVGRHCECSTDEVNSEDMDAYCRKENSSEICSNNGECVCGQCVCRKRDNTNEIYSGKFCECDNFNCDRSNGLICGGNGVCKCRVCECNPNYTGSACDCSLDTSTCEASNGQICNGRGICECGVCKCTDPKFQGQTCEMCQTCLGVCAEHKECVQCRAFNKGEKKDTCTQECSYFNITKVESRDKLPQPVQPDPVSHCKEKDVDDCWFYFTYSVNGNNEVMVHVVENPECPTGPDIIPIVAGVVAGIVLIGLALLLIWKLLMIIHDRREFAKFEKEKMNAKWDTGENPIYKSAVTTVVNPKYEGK

COc1ccc(NS(=O)(=O)c2cccc(-c3ccc(F)cc3)c2)cc1 [Compound 250]
Emax (concentration not given): 89%
pEC50 [1]: 4.51

Cc1cc(F)ccc1-c1cccc(S(=O)(=O)N(C)c2ccc(N(C)C)cc2)c1 [Compound 321]
Emax (concentration not given): 55%
pEC50 [1]: 5.20

O=S(=O)(Nc1ccc(-n2ccnc2)cc1)c1cccc(-c2ccc(F)cc2)c1 [Compound 300]
Emax (concentration not given): 50%
pEC50 [1]: 4.35

O=S(=O)(Nc1ccc(Nc2nc(Cl)nc(Cl)c2Cl)cc1)c1ccc(Cl)cc1 [Compound 170]
Emax at 40 µM: 85%
pEC50 [1]: 4.62

Cc1cc(C)nc(N(C)c2ccc(NS(=O)(=O)c3ccc(Cl)cc3Cl)cc2)n1 [Compound 50, 2,4-dichloro-N-{4-[(4,6-dimethylpyrimidin-2-yl)(methyl)amino]phenyl}benzenesulphonamide]
Emax (concentration not given): 60%
pEC50 [1]: 4.77

COc1cc(OC)nc(-c2ccc(NS(=O)(=O)c3ccc4ccccc4c3)cc2)n1 [Compound 266]
Emax (concentration not given): 70%
pEC50 [1]: 4.74

Cc1nc2cc(NS(=O)(=O)c3cccc(-c4ccc(F)cc4)c3)ccc2o1 [Compound 190, 4′-fluoro-biphenyl-3-sulfonic acid (2-methyl-benzooxazol-5-yl)-amide]
Emax (concentration not given): 76%
pEC50 [1]: 4.60

CN(C)c1ccc(NS(=O)(=O)c2cccc(-c3cccc(O)c3)c2)cc1 [Compound 205]
Emax at 50 µM: 84%
pEC50 [1]: 4.70

CN(C)c1ccc(NS(=O)(=O)c2cccc(-c3ccc(F)c(F)c3)c2)cc1 [Compound 263]
pEC50 (EC50 in cell adhesion assay): 4.59
Emax: 88%

COc1ccc(-c2cccc(S(=O)(=O)Nc3ccc(N(C)C)cc3)c2)cc1OC [Compound 142, [4-(3′,4′-dimethoxy-biphenyl-3-sulfonylamino)-phenyl]-dimethylammonium; chloride]
Emax (concentration not given): 77%
pEC50 [1]: 4.70

COc1cc(OC)nc(-c2ccc(NS(=O)(=O)c3ccc(-c4cnco4)s3)cc2)n1 [Compound 286, 5-oxazol-5-yl-thiophene-2-sulfonic acid [4-(4,6-dimethoxypyrimidin-2-yl)-phenyl]-amide]
Emax (concentration not given): 72%
pEC50 [1]: 4.43

COc1cc(OC)nc(-c2ccc(NS(=O)(=O)c3ccc(Cl)cc3Cl)cc2)n1 [Compound 164, 2,4-dichloro-N-[4-(4,6-dimethoxy-pyrimidin-2-yl)-phenyl]-benzenesulfonamide]
Emax at 50 µM: 85%
pEC50 [1]: 4.68

O=S(=O)(Nc1ccc(-n2cccn2)cc1)c1cccc(-c2ccc(F)cc2)c1 [Compound 297]
Emax (concentration not given): 80%
pEC50 [1]: 4.59

Cc1cc2cc(N(C)S(=O)(=O)c3cccc(Br)c3)ccc2[nH]1 [Compound 209]
Emax at 50 µM: 64%
pEC50 [1]: 4.46

O=S(=O)(Nc1ccc(-n2cnc(Cl)c2Cl)cc1)c1cccc(-c2ccc(F)cc2)c1 [Compound 299]
Emax (concentration not given): 79%
pEC50 [1]: 5.02

CN(C)c1ccc(N(C)S(=O)(=O)c2cccc(-c3ccc(F)cc3)c2)cc1 [Compound 282, 4′-fluoro-biphenyl-3-sulfonic acid (4-dimethylaminophenyl)-methylamide]
Emax at 50 µM: 59%
pEC50 [1]: 5.15

Cc1cc2c(n1-c1ccc(NS(=O)(=O)c3ccc(C(F)(F)F)cc3Cl)cc1)CC(C)(C)CC2=O [Compound 283, 2-chloro-4-trifluoromethyl-N-[4-(2,6,6-trimethyl-4-oxo-4,5,-6,7-tetrahydro-indol-1-yl)-phenyl]-benzenesulfonamide]
Emax (concentration not given): 63%
pEC50 [1]: 4.64

CSc1nc2ccc(NS(=O)(=O)c3ccc(Cl)cc3Cl)cc2s1 [Compound 132]
Emax (concentration not given): 90%
pEC50 [1]: 4.40

Cc1nc2cc(NS(=O)(=O)c3cccc(-c4ccc(F)cc4)c3)ccc2s1 [Compound 188, 4′-fluoro-biphenyl-3-sulfonic acid (2-methyl-benzothiazol-5-yl)-amide]
Emax (concentration not given): 81%
pEC50 [1]: 4.44

O=S(=O)(Nc1ccc(-n2cnc(Cl)c2Cl)cc1)c1ccc2ccccc2c1 [Compound 171]
Emax (concentration not given): 79%
pEC50 [1]: 4.70

Cc1cc(C)nc(N(C)c2ccc(N(C)S(=O)(=O)c3ccc(Cl)cc3Cl)cc2)n1 [Compound 302]
Emax (concentration not given): 57%
pEC50 [1]: 4.62

COc1cccc(-c2cccc(S(=O)(=O)Nc3ccc(N(C)C)cc3)c2)c1 [Compound 204]
Emax (concentration not given): 63%
pEC50 [1]: ~4.60

CN(C)c1ccc(NS(=O)(=O)c2cc(-c3ccc(F)cc3)c(F)cc2F)cc1 [Compound 202]
Emax (concentration not given): 91%
pEC50 [1]: 4.57

CN(C)c1ccc(NS(=O)(=O)c2cc(-c3ccc(F)cc3)c(Cl)s2)cc1 [Compound 316, 5-chloro-4-(4-fluoro-phenyl)-thiophene-2-sulfonic acid (4-dimethylamino-phenyl)-amide]
Emax at 50 µM: 87%
pEC50 [1]: 5.00

CN(C)c1ccc(NS(=O)(=O)c2cc(Br)c(F)cc2F)cc1 [Compound 192, 5-bromo-N-[4-(dimethylamino)phenyl]-2,4-difluoro benzene sulfonamide]
Emax (concentration not given): 75%
pEC50 [1]: 4.41

CC(C)(C)c1cc2cc(NS(=O)(=O)c3cccc(-c4ccc(F)cc4)c3)ccc2[nH]1 [Compound 291]
Emax (concentration not given): 50%
pEC50 [1]: 4.49

Cc1cc2c(n1-c1ccc(NS(=O)(=O)c3ccc(Cl)c(Cl)c3)cc1)CC(C)(C)CC2=O [Compound 269]
Emax (concentration not given): 64%
pEC50 [1]: 4.72

CN(C)c1ccc(NS(=O)(=O)c2ccc(-c3ccc(F)cc3)s2)cc1 [Compound 306]
Emax at 50 µM: 67%
pEC50 [1]: 4.62

COc1cc(OC)nc(-c2ccc(NS(=O)(=O)c3cccc(-c4ccc(F)cc4)c3)cc2)n1 [Compound 235]
Emax (concentration not given): 85%
pEC50 [1]: 4.70

CN(c1ccc2c(c1)c1ccccc1n2C)S(=O)(=O)c1ccc(Cl)cc1Cl [Compound 320]
Emax (concentration not given): 45%
pEC50 [1]: 5.00

Cc1cc(C)nc(Nc2ccc(NS(=O)(=O)c3ccc(Cl)cc3Cl)cc2)n1 [Compound 182]
Emax (concentration not given): 77%
pEC50 [1]: 4.60

CC(C)(C)c1cc2cc(NS(=O)(=O)c3ccc(Cl)cc3)ccc2[nH]1 [Compound 173]
Emax at 40 µM: 59%
pEC50 [1]: 4.46

Cc1cc2cc(NS(=O)(=O)c3ccc4oc(=O)ccc4c3)ccc2[nH]1 [Compound 234]
Emax (concentration not given): 85%
pEC50 [1]: 4.46

O=S(=O)(Nc1ccc2c(c1)OCO2)c1cccc(-c2ccc(F)cc2)c1 [Compound 186, 4′-fluoro-biphenyl-3-sulfonic acid benzo[1,3]dioxol-5-yl-amide]
Emax (concentration not given): 91%
pEC50 [1]: 4.72

Cc1cc2cc(NS(=O)(=O)c3cccc(C(F)(F)F)c3)ccc2[nH]1 [Compound 230]
Emax at 50 µM: 76%
pEC50 [1]: < 4.52

CN(C)c1ccc(N(C)S(=O)(=O)c2ccc(Cl)cc2Cl)cc1 [Compound 223, 2,4-dichloro-N-[4-(dimethylamino)phenyl]-N-methyl benzenesulfonamide]
Emax (concentration not given): 82%
pEC50 [1]: 4.89

Cc1cc2cc(NS(=O)(=O)c3cccc(Br)c3)ccc2[nH]1 [Compound 197, 3-bromo-N-(2-methyl-1H-indol-5-yl)-benzenesulfonamide]
Emax (concentration not given): 74%

Cn1ccc2ccc(NS(=O)(=O)c3cccc(-c4ccc(F)cc4)c3)cc21 [Compound 284, 4′-fluoro-biphenyl-3-sulfonic acid (1-methyl-1H-indol-6-yl)-amide]
Emax (concentration not given): 69%
pEC50 [1]: ~4.52

Cc1ccc(C)n1-c1ccc(NS(=O)(=O)c2ccc(Cl)cc2Cl)cc1 [Compound 213]
Emax at 50 µM: 71%
pEC50 [1]: 4.60

CN(C)c1ccc(NS(=O)(=O)c2cccc(-c3cccc(C#N)c3)c2)cc1 [Compound 275]
Emax (concentration not given): 57%
pEC50 [1]: 4.59

O=S(=O)(Nc1ccc2ncsc2c1)c1cccc(Br)c1 [Compound 139, N-benzolthiazol-6-yl-3-bromo-benzenesulfonamide]
Emax (concentration not given): 75%
pEC50 [1]: 4.34

Cc1nc2cc(N(C)S(=O)(=O)c3cccc(-c4ccc(F)cc4)c3)ccc2o1 [Compound 295]
Emax (concentration not given): 56%
pEC50 [1]: 4.54

Cc1nc2ccc(NS(=O)(=O)c3cccc(-c4ccc(F)cc4)c3)cc2o1 [Compound 187, 4′-fluoro-biphenyl-3-sulfonic acid (2-methyl-benzooxazol-6-yl)-amide]
Emax (concentration not given): 87%
pEC50 [1]: 4.74

Cc1nc2ccc(NS(=O)(=O)c3cccc(Br)c3)cc2s1 [Compound 195]
Emax (concentration not given): 60%
pEC50 [1]: 4.31

COc1cc(OC)nc(-c2ccc(NS(=O)(=O)c3ccc(Cl)c(Cl)c3)cc2)n1 [Compound 255]
Emax at 50 µM: 88%
pEC50 [1]: 4.77

O=S(=O)(Nc1ccc2ncsc2c1)c1cccc(-c2ccc(F)cc2)c1 [Compound 189, 4′-fluoro-biphenyl-3-sulfonic acid benzothiazol-6-ylamide]
Emax (concentration not given): 76%

Cc1cc2c(n1-c1ccc(NS(=O)(=O)c3ccc(-c4cnco4)s3)cc1)CC(C)(C)CC2=O [Compound 258]
Emax (concentration not given): 66%
pEC50 [1]: 4.40

Cc1cc(C)nc(Nc2ccc(NS(=O)(=O)c3cccc(-c4ccc(F)cc4)c3)cc2)n1 [Compound 201]
Emax at 50 µM: 64%
pEC50 [1]: 4.44

O=S(=O)(Nc1ccc(-n2cccc2)cc1)c1ccc(Cl)cc1Cl [Compound 163, 2,4-dichloro-N-(4-pyrrol-1-yl-phenyl)-benzenesulfonamide]
Emax at 50 µM: 66%
pEC50 [1]: 4.49

CN(C)c1ccc(NS(=O)(=O)c2cccc(-c3cccc(F)c3)c2)cc1 [Compound 203]
Emax (concentration not given): 86%
pEC50 [1]: 4.72

O=S(=O)(Nc1ccc2[nH]ccc2c1)c1ccc(Cl)cc1Cl [Compound 134, 2,4-dichloro-N-(1H-indol-5-yl)-benzenesulfonamide]
Emax (concentration not given): 40%
pEC50 [1]: 5.00

CN(C)c1ccc(NS(=O)(=O)c2cc(-c3ccc(F)cc3)c(-c3ccc(F)cc3)s2)cc1 [Compound 317]
Emax (concentration not given): 45%
pEC50 [1]: 4.36

Cc1cc(F)ccc1-c1ccc(S(=O)(=O)Nc2ccc(N(C)C)cc2)s1 [Compound 307]
Emax at 50 µM: 67%
pEC50 [1]: 4.70
